# Results: PubChem BioAssay (NCI)
# Where “and” joins values, the source holds several entries; their conditions need not be identical. Equal values may be shown once.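 These data come from cells grown in 96-well plates and exposed to compound for 48 hours at five concentrations. GI50 marks 50% less growth. TGI denotes the concentration required for complete inhibition of growth.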
# Test system: SF-539 CNS
# Assay: growth of human tumour cells (NCI), 48 h
Structure (SMILES),TGI,GI50
CNC(=S)NC1CCCCC1NC(=S)NC (stereo not given),> 100 µM,–
CC1OC(n2cc(F)c(=O)[nH]c2=O)C=CC1O (stereo not given),> 100 µM,–
C=C(C=O)[C@@H]1C2OC(=O)C(=C)[C@@H]2CC(O)[C@@]1(C)CC (stereo not given in full),23.6 µM,–
C=C(CCCCC)CN1CCCC1[C@@](C)(O)CC(=O)OCC (stereo not given in full),> 100 µM,–
C=CC1CC12C(=O)C1OC2(C)C2C(=O)c3cc4ccccc4cc3C(=O)C12 (stereo not given),96.9 µM,30.2 µM
O=C1c2ccccc2C(=O)C1(Cl)C1(S(=O)(=O)O)c2ccccc2-c2ccccc21,> 100 µM,–

# Test system: SK-MEL-28 melanoma
# Assay: growth of human tumour cells (NCI), 48 h
Structure (SMILES),TGI,GI50
O=[n+]1c2c(n([O-])c3ccccc31)CCCCCCCCCC2,> 100 µM,–
CNC(=S)N(C)C(=S)Nn1c(=O)c(C)nn(C)c1=S,> 100 µM,–
CCCCCCCCCC/C=C/CC(=O)SCCNC(=O)CCNC(=O)[C@@H](O)C(C)(C)COP(=O)(O)OP(=O)(O)OCC1OC(n2cnc3c(N)ncnc32)C(O)C1OP(=O)(O)O (stereo not given in full),> 10 µM,–
O=C1CCCC/C(=C/c2ccccc2)N1,> 100 µM,–
O=C1CN=C(C[N+](=O)[O-])c2ccccc21,> 100 µM,–
CCCCN(CCCC)CC(C(=O)Nc1ccc([N+](=O)[O-])cc1[N+](=O)[O-])/C(C)=N\NC(=S)NN (stereo not given),> 100 µM,–
S=C(N/N=C/c1ccco1)NC12CC3CC(CC(C3)C1)C2,> 100 µM,–
CS(=O)(=O)N/N=C/CN1C(=O)c2ccccc2C1=O,> 100 µM,–
CC(=O)O.CC(=O)O.CC(=O)O.CC(=O)O.CC(=O)O.CC(=O)O.O.[Ti].[Ti],> 100 µM,> 100 µM
COC(=O)C1=C(c2ccc3c(c2)OCO3)O[C@H](c2cc(OC)c(OC)c(OC)c2)[C@H]1COC(C)=O,> 100 µM,–
COc1ccc(OC)c(NC(=O)C(=O)NNC(=O)c2sc(NNC(C)=O)nc2C)c1,> 100 µM,–
O=C(Nc1ccc(OS(=O)(=O)c2ccccc2)cc1)C12CC3CC(CC(C3)C1)C2,> 100 µM,> 100 µM
O=[N+]([O-])c1nccn1CC(O)c1ccc(F)cc1 (stereo not given),> 100 µM,–
COc1ccc(NC(=O)CCc2cc(-c3ccc(O)c(OC)c3)nc(NC#N)n2)cc1,> 100 µM,–
COC(=O)c1cc2c3ccccc3n(C(C)=O)c2cn1,> 100 µM,–
O=C1c2ccccc2C2(Br)C(=O)c3ccccc3C12 (stereo not given),> 100 µM,–
O=S(=O)([O-])c1ccc2c(c1)-c1nc-2nc2[n-]c(nc3nc(nc4[n-]c(n1)c1ccc(S(=O)(=O)[O-])cc41)-c1cc(S(=O)(=O)[O-])ccc1-3)c1ccc(S(=O)(=O)[O-])cc21.[Cu+2].[Na+],> 100 µM,> 100 µM
COc1ccc(N(C)c2ncnc3occ(C)c23)cc1,> 100 µM,< 0.01 µM
CCCCOC(=O)C1C(c2ccc(Cl)cc2)NC(c2ccc(Cl)cc2)C(C(=O)OCCCC)S1(=O)=O (stereo not given),> 100 µM,–

Structure (SMILES),TGI,GI50
Cc1cc(Br)cc(C)c1NC(=O)C(=O)C(C(=O)c1ccc2ccccc2c1)C1OC(=O)c2ccccc21 (stereo not given),14.2 µM,–
CCOC(=O)Oc1c(OC)cc(C(=O)NC2CCc3cc(OC)c(OC)c(OC)c3-c3ccc(SC)c(=O)cc32)cc1OC (stereo not given),> 70 µM,–
CC(=O)Nc1ccc(C(=O)NN2C(=O)C(Cl)C2c2ccccc2)cc1 (stereo not given),> 100 µM,–
CC(C)(C)OC(=O)NCC(=O)OCc1ccccc1,> 100 µM,–
Cc1ccc(SC(C)/C=C/NNC2=NC(c3ccccc3)C(c3ccccc3)=NN2)cc1 (stereo not given),> 100 µM,–
CC(C)(C)[SiH]12(OC(C(F)(F)F)(C(F)(F)F)c3ccccc31)OC(C(F)(F)F)(C(F)(F)F)c1ccccc12,28.4 µM,–
CSc1nc2c(nc(C)c(=O)n2C2OCC(OC(C)=O)C(OC(C)=O)C2OC(C)=O)c(=O)[nH]1 (stereo not given),> 100 µM,–
O=S(O)CCCCSSCC(O)C(O)CSSCCCCS(=O)O (stereo not given),45.1 µM and > 100 µM,–
O=C1OC(c2ccccc2)=N/C1=C/C=C/c1ccco1,> 100 µM,–
Clc1ccc2c(NCCCNc3nccc(Nc4ccc(Br)cc4)n3)ccnc2c1,3.15 µM,1.65 µM
Cc1ccccc1N1C(=O)/C(=C/c2ccc(N(CCC#N)CCC#N)cc2)N=C1c1cc([N+](=O)[O-])ccc1Cl,> 100 µM,–
COc1ccc(C2S/C(=C\c3ccccc3O)C(=O)N2NC(=O)Cc2ccccc2)cc1 (stereo not given),> 100 µM,–
Cc1ccc(S(=O)(=O)NCC2CCCCC2=O)cc1 (stereo not given),> 100 µM,–
CCC[CH2][Sn]([CH2]CCC)([CH2]CCC)[O]C(=O)CC,0.318 µM,0.161 µM
CNC(=S)NC1CCCCC1NC(=S)NC (stereo not given),> 100 µM,–
CC1OC(n2cc(F)c(=O)[nH]c2=O)C=CC1O (stereo not given),> 100 µM,–
C=C(C=O)[C@@H]1C2OC(=O)C(=C)[C@@H]2CC(O)[C@@]1(C)CC (stereo not given in full),12.5 µM,–
C=C(CCCCC)CN1CCCC1[C@@](C)(O)CC(=O)OCC (stereo not given in full),> 100 µM,–
